The first assay addresses recombinant human SYK (GST-hSYK fusion protein) (Homo sapiens, UniProt P43405). In words: biochemical. The note with it: rhSYK Activity (IC50), recombinant human GST-SYK 5 pM, ATP 25 μM, biotinylated substrate peptide 250 nM, HTRF, 10-dose titration.
Source text: Homogeneous Time-Resolved Fluorescence (HTRF) Assay for the Recombinant Human SYK Enzyme:
On to `Cc1cc(Nc2nccc(C(F)(F)F)n2)cc(-c2cnc(-c3cn[nH]c3)s2)c1` [Example 114, N-{3-methyl-5-[2-(1H-pyrazol-4-yl)-1,3-thiazol-5-yl]phenyl}-4-(trifluoromethyl)pyrimidin-2-amine], for which the IC50 (commonly the concentration needed to halve the response being measured) is under 0.1 µM. Still for that read-out and setting: then `Cc1cc(Nc2nccc(C(F)(F)F)n2)cc(-c2cnc(-c3cnn4c3CCCC4)s2)c1` [Example 114-1], with under 0.1 µM; and `Cc1cc(Nc2nccc(C(F)(F)F)n2)cc(-c2cnc(-c3cccnc3)s2)c1` [Example 114-3], with under 0.1 µM; and `Cc1cc(Nc2nccc(C(F)(F)F)n2)cc(-c2cnc(-c3ccncc3)s2)c1` [Example 114-4], with under 0.1 µM. On the same count and under the same terms, the result for `Cc1cc(Nc2nccc(C(F)(F)F)n2)cc(-c2cnc(-c3cccs3)s2)c1` [Example 114-5] reads 0.1 to 1 µM; that for `Cc1cc(Nc2nccc(C(F)(F)F)n2)cc(-c2cnc(-c3ccsc3)s2)c1` [Example 114-6], 0.1 to 1 µM. With `Cc1cc(Nc2nccc(C(F)(F)F)n2)cc(-c2cnc(-c3ccco3)s2)c1` [Example 114-7], the IC50 is under 0.1 µM. Take `Cc1cc(Nc2nccc(C(F)(F)F)n2)cc(-c2cnc(-c3ccc[nH]3)s2)c1` [Example 114-8]: the IC50 is under 0.1 µM. Same read-out and setting: then `Cc1cc(Nc2nccc(C(F)(F)F)n2)cc(-c2cnc(-c3cnn(CCO)c3)s2)c1` [Example 115, 2-{4-[5-(3-methyl-5-{[4-(trifluoromethyl)pyrimidin-2-yl]amino}phenyl)-1,3-thiazol-2-yl]-1H-pyrazol-1-yl}ethanol], with under 0.1 µM; and `Cc1cc(Nc2nccc(OC(C)C)n2)cc(-c2cnc([C@@]3(O)CC[C@H](C(N)=O)C(C)(C)C3)s2)c1` [Example 119, (1S,4R)-4-hydroxy-2,2-dimethyl-4-[5-(3-methyl-5-{[4-(propan-2-yloxy)pyrimidin-2-yl]-amino}phenyl)-1,3-thiazol-2-yl]cyclohexanecarboxamide], with under 0.1 µM; and `COC(=O)[C@@H]1CC[C@@](O)(c2ncc(-c3cc(C)cc(Nc4nccc(C(F)(F)F)n4)c3)s2)CC1(C)C` [Example 121, Methyl(1R,4S)-4-hydroxy-2,2-dimethyl-4-[5-(3-methyl-5-{[4-(trifluoromethyl)pyrimidin-2-yl]-amino}phenyl)-1,3-thiazol-2-yl]cyclohexanecarboxylate], with under 0.1 µM. For the compound `COCCCc1ccnc(Nc2cc(C)cc(-c3cnc(C4(O)CCC(C(=O)OC(C)(C)C)CC4)s3)c2)n1` (centres unmarked) [Example 122, tert-butyl 4-hydroxy-4-[5-(3-{[4-(3-methoxypropyl)pyrimidin-2-yl]amino}-5-methylphenyl)-1,3-thiazol-2-yl]cyclohexanecarboxylate], the IC50 fell in the range of 0.1 to 1 µM. Turning to `CC1(C)C[C@@](O)(c2ncc(-c3cc(CN)cc(Nc4nccc(C(F)(F)F)n4)c3)s2)CC[C@@H]1C(=O)O` [Example 123, (1S,4R)-4-{5-[3-(aminomethyl)-5-{[4-(trifluoromethyl)pyrimidin-2-yl]amino}phenyl]-1,3-thiazol-2-yl}-4-hydroxy-2,2-dimethylcyclohexanecarboxylic acid], the IC50 is under 0.1 µM. Regarding `CC1(C)C[C@@](O)(c2ncc(-c3cc(CNC(N)=O)cc(Nc4nccc(C(F)(F)F)n4)c3)s2)CC[C@@H]1C(=O)O` [Example 124, (1S,4R)-4-[5-(3-[(carbamoylamino)methyl]-5-{[4-(trifluoromethyl)pyrimidin-2-yl]amino}phenyl)-1,3-thiazol-2-yl]-4-hydroxy-2,2-dimethylcyclohexanecarboxylic acid], the IC50 is under 0.1 µM.

With `CC(=O)NCc1cc(Nc2nccc(C(F)(F)F)n2)cc(-c2cnc([C@@]3(O)CC[C@H](C(=O)O)C(C)(C)C3)s2)c1` [Example 125, (1S,4R)-4-[5-(3-[(acetylamino)methyl]-5-{[4-(trifluoromethyl)pyrimidin-2-yl]amino}phenyl)-1,3-thiazol-2-yl]-4-hydroxy-2,2-dimethylcyclohexanecarboxylic acid], the IC50 was under 0.1 µM. For the compound `Cc1cc(Nc2nccc(C(F)(F)F)n2)cc(-c2cnc(C3(OCCO)CCNC(=O)CC3)s2)c1` (centres unmarked) [Example 127, 5-(2-hydroxyethoxy)-5-[5-(3-methyl-5-{[4-(trifluoromethyl)pyrimidin-2-yl]amino}phenyl)-1,3-thiazol-2-yl]azepan-2-one], the IC50 was under 0.1 µM.

Turning to `Cc1cc(Nc2nccc(C(F)(F)F)n2)cc(-c2cnc(C3(C#N)CCCCC3)s2)c1` [Example 128, 1-[5-(3-methyl-5-{[4-(trifluoromethyl)pyrimidin-2-yl]amino}phenyl)-1,3-thiazol-2-yl]cyclohexanecarbonitrile], the IC50 lay within 0.1 to 1 µM.

With `Cc1cc(Nc2nccc(C(F)(F)F)n2)cc(-c2cnc(C3(C(N)=O)CCCCC3)s2)c1` [Example 129, 1-[5-(3-methyl-5-{[4-(trifluoromethyl)pyrimidin-2-yl]amino}phenyl)-1,3-thiazol-2-yl]cyclohexanecarboxamide], the IC50 was under 0.1 µM. For `Cc1cc(Nc2nccc(C(F)(F)F)n2)cc(-c2cnc(C3CCCCC3)s2)c1` [Example 130], the IC50 is 0.1 to 1 µM.

For the compound `Cc1cc(Nc2nccc(C(F)(F)F)n2)cc(-c2cnc(C(C)(O)c3ccc(S(C)(=O)=O)cc3)s2)c1` (centres unmarked) [Example 131, 1-[4-(methylsulfonyl)phenyl]-1-[5-(3-methyl-5-{[4-(trifluoromethyl)pyrimidin-2-yl]amino}phenyl)-1,3-thiazol-2-yl]ethanol], the IC50 is under 0.1 µM. The same measure, in the same setting: the result for `Cc1cc(Nc2nccc(C(F)(F)F)n2)cc(-c2cnc(C3(F)CCSCC3)s2)c1` [Example 132, N-{3-[2-(4-fluorotetrahydro-2H-thiopyran-4-yl)-1,3-thiazol-5-yl]-5-methylphenyl}-4-(trifluoromethyl)pyrimidin-2-amine] reads 0.1 to 1 µM. As for `Cc1cc(Nc2nccc(C(F)(F)F)n2)cc(-c2cnc(C3=CCSCC3)s2)c1` [Example 133, N-{3-[2-(3,6-dihydro-2H-thiopyran-4-yl)-1,3-thiazol-5-yl]-5-methylphenyl}-4-(trifluoromethyl)pyrimidin-2-amine], the IC50 is under 0.1 µM. Same read-out and setting: the result for `Cc1cc(Nc2nccc(C(F)(F)F)n2)cc(-c2cnc(C3(F)CCS(=O)(=O)CC3)s2)c1` [Example 134, N-{3-[2-(4-fluoro-1,1-dioxidotetrahydro-2H-thiopyran-4-yl)-1,3-thiazol-5-yl]-5-methylphenyl}-4-(trifluoromethyl)pyrimidin-2-amine] reads under 0.1 µM; that for `Cc1cc(Nc2nccc(C(F)(F)F)n2)cc(-c2cnc(C3=CCS(=O)(=O)CC3)s2)c1` [Example 135, N-{3-[2-(1,1-dioxido-3,6-dihydro-2H-thiopyran-4-yl)-1,3-thiazol-5-yl]-5-methylphenyl}-4-(trifluoromethyl)pyrimidin-2-amine], under 0.1 µM. In the case of `Cc1cc(Nc2nccc(C(F)(F)F)n2)cc(-c2cnc(C3CCSCC3)s2)c1` [Example 136, N-{3-methyl-5-[2-(tetrahydro-2H-thiopyran-4-yl)-1,3-thiazol-5-yl]phenyl}-4-(trifluoromethyl)pyrimidin-2-amine], the IC50 is under 0.1 µM.

Staying with this assay, now noted: rhSYK Activity, Table 113B.
In the case of `Cc1cc(Nc2nccc(C(F)(F)F)n2)cc(-c2cnc(C3(O)CC(C)C(C(=O)OC(C)C)C(C)C3)s2)c1` (centres unmarked) [Example 113B-26], the IC50 lay in the range of 1 to 10 µM. For `Cc1cc(Nc2nccc(C(F)(F)F)n2)cc(-c2cnc(C3(O)CC(C)C(C(=O)OC(C)C)C(C)C3)s2)c1` (centres unmarked) [Example 113B-27], the IC50 lay within 0.1 to 1 µM. On the same count and under the same terms, the result for `Cc1cc(Nc2nccc(C)n2)cc(-c2cnc(C3(O)C(C)CC(C(=O)O)CC3C)s2)c1` (centres unmarked) [Example 113B-28] reads under 0.1 µM. Take `CCOC(=O)C1CC(C)C(O)(c2ncc(-c3cc(C)cc(Nc4nccc(C)n4)c3)s2)C(C)C1` (centres unmarked) [Example 113B-29]: the IC50 was under 0.1 µM.

Regarding `Cc1cc(Nc2nccc(C(F)(F)F)n2)cc(-c2cnc(C3(O)C(C)CC(C(=O)O)CC3C)s2)c1` (centres unmarked) [Example 113B-30], the IC50 was under 0.1 µM.

Regarding `CCOC(=O)C1CC(C)C(O)(c2ncc(-c3cc(C)cc(Nc4nccc(C(F)(F)F)n4)c3)s2)C(C)C1` (centres unmarked) [Example 113B-31], the IC50 was under 0.1 µM.

The assay is the same for the next values; noted with them: rhSYK Activity, Table 113D, upper part.
For the compound `C=C(c1ccc(C(=O)O)cc1)c1ncc(-c2cc(C)cc(Nc3nccc(C(F)(F)F)n3)c2)s1` [Example 113D-1], the concentration for half-maximal inhibition (IC50) is under 0.1 µM. Turning to `C=C(c1ccc(C(=O)OC)cc1)c1ncc(-c2cc(C)cc(Nc3nccc(C(F)(F)F)n3)c2)s1` [Example 113D-2], the half-maximal inhibitory concentration (IC50) is 0.1 to 1 µM. Regarding `Cc1cc(Nc2nccc(C(F)(F)F)n2)cc(-c2cnc(C3(c4ccc(C(=O)O)cc4)CC3)s2)c1` [Example 113D-3], the half-inhibitory concentration (IC50) was under 0.1 µM. As for `Cc1cc(Nc2nccc(C(F)(F)F)n2)cc(-c2cnc(C(C)(C)c3ccc(C(=O)O)cc3)s2)c1` [Example 113D-5], the IC50 was under 0.1 µM. Take `Cc1cc(Nc2nccc(C(F)(F)F)n2)cc(-c2cnc(C(F)(F)c3ccc(C(=O)O)cc3)s2)c1` [Example 113D-7]: the IC50 was under 0.1 µM. As for `COC(=O)c1ccc(C(C)(C)c2ncc(-c3cc(C)cc(Nc4nccc(C(F)(F)F)n4)c3)s2)cc1` [Example 113D-9], the IC50 lay in the range of 0.1 to 1 µM.

Staying with this assay, now noted: rhSYK Activity, Table 115.
On to `Cc1cc(Nc2nccc(C(F)(F)F)n2)cc(-c2cnc(-c3cnn(C4CCOCC4)c3)s2)c1` [Example 115-1], for which the IC50 was under 0.1 µM. Still for that read-out and setting: the result for `Cc1cc(Nc2nccc(C(F)(F)F)n2)cc(-c2cnc(-c3cnn(CCC#N)c3)s2)c1` [Example 115-2] reads under 0.1 µM; that for `Cc1cc(Nc2nccc(C(F)(F)F)n2)cc(-c2cnc(-c3cnn(CCCO)c3)s2)c1` [Example 115-3], under 0.1 µM; that for `Cc1cc(Nc2nccc(C(F)(F)F)n2)cc(-c2cnc(-c3cnn(C[C@@H](O)CO)c3)s2)c1` [Example 115-4], under 0.1 µM. Still for that read-out and setting: the result for `Cc1cc(Nc2nccc(C(F)(F)F)n2)cc(-c2cnc(-c3cnn(CC(C)(C)O)c3)s2)c1` [Example 115-5] reads under 0.1 µM.

As to `Cc1cc(Nc2nccc(C(F)(F)F)n2)cc(-c2cnc(-c3cnn(C(CCO)C(=O)O)c3)s2)c1` (centres unmarked) [Example 115-6], the IC50 was under 0.1 µM. With `Cc1cc(Nc2nccc(C(F)(F)F)n2)cc(-c2cnc(-c3cnn(CC4CNC(=O)O4)c3)s2)c1` (centres unmarked) [Example 115-7], the IC50 was under 0.1 µM.

The values above are taken from US8551984B2, “Aminopyrimidines as SYK inhibitors” (Merck Sharp & Dohme Corp., priority 2009, dated 2013).
